# Test results from patent publication US10772876B2, “Enhancers of Notch signaling and the use thereof in the treatment of cancers and malignancies medicable by upregulation of Notch” (XENIOPRO GmbH, priority 2016, dated 2020).
# “Also recorded” adds a separate entry of the source.
# How the values were obtained:
# [1] = system: Notch1 full-length receptor; assay: Notch1 full-length receptor driven luciferase reporter assay (HeLa co-culture with DLL4 ligand expressing HeLa cells); format: cell-based; settings: for Notch signaling relative to the DMSO control: control treatments, FIG. 1
# Description: As used herein, the term “enhancing Notch signaling” refers to an effect on a cellular Notch-driven luciferase reporter assay, by which the Notch signaling enhancing properties of the compounds of the invention are determined. The Notch-driven luciferase reporter assay consists of HeLa cells engineered to express the Notch1 full length receptor, and to harbor a CSL-driven firefly luciferase expression construct as well as a Notch independent Renilla luciferase construct for the purpose of normalisation. These cells are co-cultured with engineered HeLa cells expressing the Notch ligand D114 to induce Notch signaling, thus to induce the expression of the firefly luciferase enzyme. The intensity of a luciferase-driven reporter signal is considered as a measure for Notch signaling.
# A compound is considered as having an effect of enhancing Notch signaling if said compound results relative to DMSO in ≥1.5-fold increase, preferably in ≥2.0-fold increase, more preferably in ≥2.5-fold increase and most preferably in ≥3.0-fold increase of the Luciferase-driven reporter signal in the frame of the named Notch-dependent luciferase reporter assay.
# FIG. 1. […] The indicated compounds were tested at 10 μM concentration in a Notch-driven luciferase reporter assay. HeLa cells had been engineered to express the Notch1 full-length receptor, the firefly luciferase (expression dependent on Notch signaling) and the renilla luciferase (expression independent on Notch signaling). Cells were co-cultured in a 96 well-plate with DLL4 ligand expressing HeLa cells to induce Notch signaling and simultaneously treated with DMSO or indicated compounds for 20 h. Notch signaling activation was then quantified by measuring luciferase-dependent luminescence intensities upon treatment with appropriate substrates. The firefly values were normalized against the renilla values to obtain the relative luminescence intensities (represented by the bars).
# (§1) A brief description of the assay is given in the description of FIG. 1. If not stated differently, all assays were performed using a Notch1 full-length receptor driven reporter system. Values are normalized against DMSO. a) V126 (black rhombi) was tested at the indicated concentrations. […] The control readouts for DMSO (black), CB103 (white), V126 at 10 μM and V126 at 1 μM (diagonal lines) were taken as usual after incubation for 20 h. c) V126 was tested in combination with an equimolar amount of the y-secretase inhibitor DAPT or the Notch inhibitor CB103 at 10 μM concentration each. d) V126 and the indicated compounds were tested at 10 μM in a luciferase reporter assay driven by the Notch2 receptor isoform. e) V126 and the indicated compounds were tested at 10 μM in a luciferase assay driven by the constitutively active form of the Notch1 receptor (N1ICD, Notch1 intracellular domain).
# [2] = system: N1ICD, Notch1 intracellular domain; assay: Luciferase assay driven by the constitutively active form of the Notch1 receptor (N1ICD); format: cell-based; settings: 10 μM, FIG. 2e
# Description: as §1
# (§2) To rule out that V126 is directly enhancing the activity of the luciferase enzyme, the Notch reporter assay was challenged by applying V126 treatment immediately prior to the readout. […] Moreover, the Notch-enhancing activity of V126 could be partially and completely rescued by combinational equimolar treatment with the γ-secretase inhibitor DAPT or the Notch inhibitor CB103, respectively, further confirming the ability of V126 to upregulate Notch signaling (FIG. 2c).
# CD4 T cells = assay: IFN-γ production and secretion of CD4 T cells under Th1 polarizing conditions; format: cell-based, mice; settings: 10 μM, 96 hours, intracellular IFN-γ and Elisa of culture supernatants
# Description: FIGS. 5A-5C The Notch signaling enhancing compound V126 induces increased IFNy production and secretion in vitro. CD4 T cells isolated from naive CS7B/6 mice were cultured on plate bound α-CD3/α-CD28 (both 0.25μg/m1) under Th1 polarizing conditions (rlL-12, (5ng/ml) and anti-IL-4 (clone:11B11; […])) in the presence of DMSO, DAPT as y-secretase inhibitor and V126 at 10 μM. 96 hours after initiation of the culture, intracellular IFN-y levels a) and CD25 surface expression b) were assessed on PMA/lonomycin stimulated CD4 T cells. c) IFN-y cytokine levels were assessed in culture supernatants by Elisa under the same conditions as in a) and b).
# [3] = system: splenic marginal zone B-cells (MZB); assay: Splenic B-cell compartments in mice by flow cytometry; format: in vivo, C57BL/6N mice; settings: 25 mg/kg intraperitoneal once a day for one week
# Description: C57BL/6N mice were treated with 25 mg/kg V126 by intraperitoneal injection once a day for one week. a) Spleen cells were analyzed by flow cytometry. Shown are two representative plots of control (Ctrl., n=5) and V126 (n=4) treatments displaying the B220+cell (total B-cell) population. The gates encircle the respective MZB, FoB, and TB fractions with the corresponding numbers indicating the relative proportions (in percentage) of cells out of the B220+population. b) The bar diagrams quantify the relative MZB percentages from a) (left), and the recalculated total numbers of splenic MZBs (right). FoBs: Follicular B-cells, TBs: Transitional B-cells, see text.
# Notch activation in the skin is known to drive differentiation of keratinocytes resulting in the induction of differentiation markers such as involucrin (C. Nowell, Cold Spring Harb Perspect Med. 2013, 3, 12), (G. P. Dotto, Oncogene 2008, 27, 5115-5123). […] In the spleen, marginal zone B-cells (MZBs) and follicular B-cells (FoBs) are the two main types of mature B-cells, both of which develop from the same precursor cells, namely the transitional B-cells (TBs). […] The impact of V126 on the different B-cell compartments in these mice was analyzed by flow cytometry on splenocytes, showing that V126 was capable to double the number of MZBs as compared to the control, whereas the FoB numbers were not affected (FIG. 4).
# luciferase enzyme = target: T1, luciferase enzyme (Photinus pyralis, UniProt P08659); assay: Direct influence on luciferase enzyme activity (treatment 5 min prior to readout of the Notch reporter assay); format: cell-based; settings: 10 μM and 1 μM, 5 min prior to the readout, FIG. 2b
# T1 construct: expressed in transfected cells; host or cells: HeLa cells engineered with Notch1 full-length receptor, firefly and Renilla luciferase constructs, co-cultured with DLL4-expressing HeLa cells
# Description: as §1, §2
# SCC13 cells = assay: Involucrin protein expression in SCC13 cells (Western Blot); format: cell-based, human; settings: 10 μM, 48 h, β-actin as loading control
# Description: Cells were treated with DMSO or V126 at a concentration of 10 μM for 48 h. Total cell lysates were applied on Western Blot analysis using β-actin as loading control.
# Notch activation in the skin is known to drive differentiation of keratinocytes resulting in the induction of differentiation markers such as involucrin (C. Nowell, Cold Spring Harb Perspect Med. 2013, 3, 12), (G. P. Dotto, Oncogene 2008, 27, 5115-5123). […] In the spleen, marginal zone B-cells (MZBs) and follicular B-cells (FoBs) are the two main types of mature B-cells, both of which develop from the same precursor cells, namely the transitional B-cells (TBs). Notch2 signaling was reported to play a crucial role in the development of MZBs (S. Pillai, Nat. Rev. Immunol. 2009, 9, 767-777) and increased Notch2 signaling in the spleen leads to an expansion of the MZB compartment (F. Hampel, Blood 2011, 118, 24, 6321-6331). In contrast, the development of FoBs is not dependent on Notch signaling. To evaluate the effect of V126 in vivo, C57BL/6N mice were injected intraperitoneally with 25 mg/kg V126 once a day for one week. The impact of V126 on the different B-cell compartments in these mice was analyzed by flow cytometry on splenocytes, showing that V126 was capable to double the number of MZBs as compared to the control, whereas the FoB numbers were not affected (FIG. 4).
# [4] = system: Notch2 full-length receptor; assay: Luciferase reporter assay driven by the Notch2 receptor isoform (N2FL); format: cell-based; settings: 10 μM, FIG. 2d
# Description: as §1, §2
# T1 sequence (P08659 whole entry): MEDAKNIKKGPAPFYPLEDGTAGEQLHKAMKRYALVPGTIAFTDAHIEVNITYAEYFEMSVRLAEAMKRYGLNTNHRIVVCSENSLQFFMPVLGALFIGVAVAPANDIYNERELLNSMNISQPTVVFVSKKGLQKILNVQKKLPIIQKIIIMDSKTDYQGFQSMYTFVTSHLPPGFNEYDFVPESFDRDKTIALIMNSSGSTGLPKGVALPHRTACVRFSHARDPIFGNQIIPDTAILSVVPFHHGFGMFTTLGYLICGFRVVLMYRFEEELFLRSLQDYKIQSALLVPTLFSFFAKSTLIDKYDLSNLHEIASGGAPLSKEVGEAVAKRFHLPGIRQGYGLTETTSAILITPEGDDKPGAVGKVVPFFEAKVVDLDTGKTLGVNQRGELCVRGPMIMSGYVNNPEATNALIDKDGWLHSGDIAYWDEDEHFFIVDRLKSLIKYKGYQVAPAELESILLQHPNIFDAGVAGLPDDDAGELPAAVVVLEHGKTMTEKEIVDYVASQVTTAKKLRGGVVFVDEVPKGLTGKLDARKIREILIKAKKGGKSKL
smiles,measurement,setting,value
"CCCC(CCC)C(=O)O [valproic acid, reference compound]",effect on Notch signaling,"[1]; concentrations up to 40 μM, FIG. 2a",did not show any effect
"CC(C)(C)c1ccc(Oc2ccc(N)cn2)cc1 [CB103, reference compound]",Notch signaling relative to the DMSO control,[1]; 20 h,decrease in Notch signaling
"C[C@H](NC(=O)Cc1cc(F)cc(F)c1)C(=O)N[C@H](C(=O)OC(C)(C)C)c1ccccc1 [DAPT, reference compound]",Notch signaling relative to the DMSO control,[1]; 20 h,decrease in Notch signaling
"CC(C)(C)c1ccc(Oc2ccc(C(=O)O)cc2)cc1 [V126, 4-(4-(tert-Butyl)phenoxy)benzoic acid]",enhancement of N1ICD driven signaling,[2],enhance the signaling cascade taking place downstream of ligand-mediated activation of Notch signaling
same,IFNγ production and secretion,CD4 T cells,increased
same,FoB (follicular B-cell) numbers,[3],not affected
same,number of splenic MZBs compared to the control,[3],increase; also recorded: double
same,luciferase values after treatment for 20 h in the very same readout,"[1]; 10 μM and 1 μM, 20 h, FIG. 2b",expected upregulation
same,rescue of the Notch-enhancing activity by combinational equimolar treatment with CB103,"[1]; V126 plus Notch inhibitor CB103, 10 μM each, FIG. 2c",completely
same,rescue of the Notch-enhancing activity by combinational equimolar treatment with DAPT,"[1]; V126 plus γ-secretase inhibitor DAPT, 10 μM each, FIG. 2c",partially
same,enhancement of Notch signaling,"[1]; concentration of 1↔M, FIG. 2a",strongly enhanced Notch signaling
same,luciferase values after short-term treatment immediately prior to the readout,luciferase enzyme,in the range of the DMSO control level
same,expression of the differentiation marker involucrin at the protein level,SCC13 cells,increased protein expression
same,enhancement of Notch2 receptor driven signaling,[4],enhance signaling derived from different Notch receptor isoforms
